Assay results from PMC4021102, “The onset of grapevine berry ripening is characterized by ROS accumulation and lipoxygenase-mediated membrane peroxidation in the skin” (BMC Plant Biology, 2014).

Molecular target: T1, PnLOXA (Vitis vinifera, UniProt D7SLA9)
T1 construct: gene VIT_06s0004g01510
Conditions: 0.1 mM substrate, pH 6.5, 25 °C; exclusively 13-product

T1 sequence (D7SLA9 entry or part of it): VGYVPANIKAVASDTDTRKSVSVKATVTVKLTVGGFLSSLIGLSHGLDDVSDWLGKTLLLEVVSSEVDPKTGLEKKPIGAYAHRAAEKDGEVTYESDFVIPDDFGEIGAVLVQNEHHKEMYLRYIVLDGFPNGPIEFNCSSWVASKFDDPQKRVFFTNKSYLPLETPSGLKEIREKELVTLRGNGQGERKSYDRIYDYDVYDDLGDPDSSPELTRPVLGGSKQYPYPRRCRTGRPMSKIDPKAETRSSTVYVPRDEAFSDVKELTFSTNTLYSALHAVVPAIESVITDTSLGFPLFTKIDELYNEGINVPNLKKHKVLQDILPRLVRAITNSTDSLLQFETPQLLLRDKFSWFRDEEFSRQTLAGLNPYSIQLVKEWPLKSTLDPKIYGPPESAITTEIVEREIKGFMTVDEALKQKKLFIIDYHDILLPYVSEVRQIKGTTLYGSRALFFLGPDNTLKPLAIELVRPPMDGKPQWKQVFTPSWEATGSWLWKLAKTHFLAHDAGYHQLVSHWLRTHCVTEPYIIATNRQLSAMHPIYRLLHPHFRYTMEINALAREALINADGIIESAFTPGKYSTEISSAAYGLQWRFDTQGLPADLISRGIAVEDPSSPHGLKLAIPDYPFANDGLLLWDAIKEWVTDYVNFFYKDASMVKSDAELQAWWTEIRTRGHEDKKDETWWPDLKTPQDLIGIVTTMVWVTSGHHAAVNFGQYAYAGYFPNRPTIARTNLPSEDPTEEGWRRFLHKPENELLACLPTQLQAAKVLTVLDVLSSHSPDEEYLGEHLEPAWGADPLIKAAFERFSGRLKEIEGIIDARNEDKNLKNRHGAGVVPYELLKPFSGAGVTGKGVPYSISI

## CC/C=C\C/C=C\C/C=C\CCCCCCCC(=O)O [α-linolenic acid]
  peroxidation product identified by ESI-MS/MS: PnLOXA catalyzed the regiospecific peroxidation of α-linolenic acid to produce exclusively 13-HOTrE
